Earlier results, collected in US20210214291A1, “Rapid Thermal Isomerization of Lycopene” (priority 2020, published 2021).
Like-named read-outs stand apart in the source and are kept apart here.

Experiments:
[1] = system: super oxide dismutase (SOD) activity; settings: for increase in SOD activity: patients
[2] = organic solvents, 24 hrs

Row | increase in SOD activity ([1]; daily 6 mg for 8 wks) | increase in SOD activity ([1]; daily 15 mg for 8 wks) | isomerization ratio to the cis-isomer ([2]; 4 C) | isomerization ratio to the cis-isomer ([2]; 50 C) | SMILES | reduction in C-reactive protein (CRP) levels ([1]; high dose group (15 mg daily, 8 wks))
1 | 1.73 units per milliliter | 2.37 units per milliliter | – | – | CC(C)=CCC/C(C)=C/C=C/C(C)=C/C=C/C(C)=C/C=C/C=C(C)/C=C/C=C(C)/C=C/C=C(\C)CCC=C(C)C [lycopene] | 57%
2 | – | – | 11.4% | 77.8% | CC(C)=CCC/C(C)=C/C=C/C(C)=C/C=C/C(C)=C/C=C/C=C(C)/C=C/C=C(C)/C=C/C=C(\C)CCC=C(C)C [trans-lycopene] | –
